The results in this text go back to patent US20230365592A1 (Agios Pharmaceuticals, Inc., priority 2022, published 2023).

This assay deals with T1, human PAH with the R408W mutation (Homo sapiens, UniProt P00439, R408W).
T1 construct: expressed in transfected cells
T1 sequence (P00439 1-452 R408W): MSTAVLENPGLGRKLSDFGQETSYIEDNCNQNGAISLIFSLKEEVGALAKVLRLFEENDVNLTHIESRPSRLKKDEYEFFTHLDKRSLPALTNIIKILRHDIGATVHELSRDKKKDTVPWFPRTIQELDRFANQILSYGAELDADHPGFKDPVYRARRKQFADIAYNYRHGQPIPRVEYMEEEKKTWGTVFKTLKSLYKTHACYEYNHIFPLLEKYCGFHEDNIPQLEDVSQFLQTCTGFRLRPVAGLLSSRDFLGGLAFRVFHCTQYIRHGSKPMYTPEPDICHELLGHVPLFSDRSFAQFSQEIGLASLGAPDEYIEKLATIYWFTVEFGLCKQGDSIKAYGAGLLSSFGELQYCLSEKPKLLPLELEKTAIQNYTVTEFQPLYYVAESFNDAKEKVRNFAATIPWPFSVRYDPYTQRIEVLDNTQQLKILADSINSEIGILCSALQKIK
Briefly: Cell Based Phenylalanine Flux Assay.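 Note: after compound treatment, cells received sepiapterin plus isotope-labelled Phenylalanine for 4 hours, then labelled Tyrosine in the medium was quantified, 10-point 2-fold dilution series run in duplicate.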 Particulars: A375 cells expressing human R408W PAH; 24 hrs compound incubation; 13C-Tyrosine by LC-MS; average where tested multiple times; read-out: AC50.

For `O=C(c1nnc(-c2ccn(C(F)F)n2)o1)N1CCc2[nH]cnc2[C@H]1c1cc2cccc(Cl)n2n1` [Example 964, (S)-(4-(7-chloropyrazolo[1,5-a]pyridin-2-yl)-6,7-dihydro-1H-imidazo[4,5-c]pyridin-5(4H)-yl)(5-(1-(difluoromethyl)-1H-pyrazol-3-yl)-1,3,4-oxadiazol-2-yl)methanone], the AC50 was less than 500 nM.

As for `O=C(c1nnc(-c2ccn(C(F)F)n2)o1)N1CCc2[nH]cnc2[C@@H]1c1cc2cccc(Cl)n2n1` [Example 965, (R)-(4-(7-chloropyrazolo[1,5-a]pyridin-2-yl)-6,7-dihydro-1H-imidazo[4,5-c]pyridin-5(4H)-yl)(5-(1-(difluoromethyl)-1H-pyrazol-3-yl)-1,3,4-oxadiazol-2-yl)methanone], the AC50 is greater than 5000 nM.

Consider `Cc1ccc2cc([C@@H]3c4nc[nH]c4CCN3C(=O)c3nnc(C4CC4)o3)nn2c1` [Example 966, (S)-(5-cyclopropyl-1,3,4-oxadiazol-2-yl)(4-(6-methylpyrazolo[1,5-a]pyridin-2-yl)-6,7-dihydro-1H-imidazo[4,5-c]pyridin-5(4H)-yl)methanone], for which the AC50 lay within 500 to 1000 nM.

As to `Cc1ccc2cc([C@H]3c4nc[nH]c4CCN3C(=O)c3nnc(C4CC4)o3)nn2c1` [Example 967, (R)-(5-cyclopropyl-1,3,4-oxadiazol-2-yl)(4-(6-methylpyrazolo[1,5-a]pyridin-2-yl)-6,7-dihydro-1H-imidazo[4,5-c]pyridin-5(4H)-yl)methanone], the AC50 is greater than 5000 nM.

As to `CC(C)(F)c1nnc(C(=O)N2CCc3[nH]cnc3[C@@H]2c2cc3cccc(Cl)n3n2)o1` [Example 968, (R)-(4-(7-chloropyrazolo[1,5-a]pyridin-2-yl)-6,7-dihydro-1H-imidazo[4,5-c]pyridin-5(4H)-yl)(5-(2-fluoropropan-2-yl)-1,3,4-oxadiazol-2-yl)methanone], the AC50 lay within 1000 to 5000 nM.

Turning to `COc1cccn2nc([C@H]3c4nc[nH]c4CCN3C(=O)c3nnc(C(C)(C)F)o3)cc12` [Example 970, (R)-(5-(2-fluoropropan-2-yl)-1,3,4-oxadiazol-2-yl)(4-(4-methoxypyrazolo[1,5-a]pyridin-2-yl)-6,7-dihydro-1H-imidazo[4,5-c]pyridin-5(4H)-yl)methanone], the AC50 is greater than 5000 nM.

Consider `COc1cccn2nc([C@@H]3c4nc[nH]c4CCN3C(=O)c3nnc(C(C)(C)F)o3)cc12` [Example 971, (S)-(5-(2-fluoropropan-2-yl)-1,3,4-oxadiazol-2-yl)(4-(4-methoxypyrazolo[1,5-a]pyridin-2-yl)-6,7-dihydro-1H-imidazo[4,5-c]pyridin-5(4H)-yl)methanone], for which the AC50 lay within 500 to 1000 nM.

On to `Cc1c(-c2nnc(C(=O)N3CCc4[nH]cnc4[C@H]3c3cc4ccccn4n3)o2)cnn1C` [Example 972, (S)-(5-(1,5-dimethyl-1H-pyrazol-4-yl)-1,3,4-oxadiazol-2-yl)(4-(pyrazolo[1,5-a]pyridin-2-yl)-6,7-dihydro-1H-imidazo[4,5-c)pyridin-5(4H)-yl)methanone], for which the AC50 is less than 500 nM.

In the case of `Cc1c(-c2nnc(C(=O)N3CCc4[nH]cnc4[C@@H]3c3cc4ccccn4n3)o2)cnn1C` [Example 973, (R)-(5-(1,5-dimethyl-1H-pyrazol-4-yl)-1,3,4-oxadiazol-2-yl)(4-(pyrazolo[1,5-a]pyridin-2-yl)-6,7-dihydro-1H-imidazo[4,5-c]pyridin-5(4H)-yl)methanone], the AC50 is greater than 5000 nM.

As to `O=C(c1nnc(-c2ccccn2)o1)N1CCc2[nH]cnc2[C@@H]1c1cc2cccc(F)n2n1` [Example 974, (R)-(4-(7-fluoropyrazolo[1,5-a]pyridin-2-yl)-6,7-dihydro-1H-imidazo[4,5-c]pyridin-5(4H)-yl)(5-(pyridin-2-yl)-1,3,4-oxadiazol-2-yl)methanone], the AC50 fell in the range of 1000 to 5000 nM.

Regarding `O=C(c1nnc(-c2ccccn2)o1)N1CCc2[nH]cnc2[C@H]1c1cc2cccc(F)n2n1` [Example 975, (S)-(4-(7-fluoropyrazolo[1,5-a]pyridin-2-yl)-6,7-dihydro-1H-imidazo[4,5-c]pyridin-5(4H)-yl)(5-(pyridin-2-yl)-1,3,4-oxadiazol-2-yl)methanone], the concentration at half-maximal activity (AC50) is less than 500 nM.

In the case of `Cn1ccc(-c2nnc(C(=O)N3CCc4[nH]cnc4[C@H]3c3cc4cccc(Cl)n4n3)o2)n1` [Example 976, (S)-(4-(7-chloropyrazolo[1,5-a]pyridin-2-yl)-6,7-dihydro-1H-imidazo[4,5-c)pyridin-5(4H)-yl)(5-(1-methyl-1H-pyrazol-3-yl)-1,3,4-oxadiazol-2-yl)methanone], the AC50 was less than 500 nM.

Consider `Cn1ccc(-c2nnc(C(=O)N3CCc4[nH]cnc4[C@@H]3c3cc4cccc(Cl)n4n3)o2)n1` [Example 977, (R)-(4-(7-chloropyrazolo[1,5-a]pyridin-2-yl)-6,7-dihydro-1H-imidazo(4,5-c]pyridin-5(4H)-yl)(5-(1-methyl-1H-pyrazol-3-yl)-1,3,4-oxadiazol-2-yl)methanone], for which the AC50 is greater than 5000 nM.

`O=C(c1nnc(-c2cnccn2)o1)N1CCc2[nH]cnc2[C@@H]1c1cc2cccc(Cl)n2n1` [Example 978, (R)-(4-(7-chloropyrazolo[1,5-a]pyridin-2-yl)-6,7-dihydro-1H-imidazo[4,5-c]pyridin-5(4H)-yl)(5-(pyrazin-2-yl)-1,3,4-oxadiazol-2-yl)methanone]: the AC50 lay within 1000 to 5000 nM.

Take `O=C(c1nnc(C2CC2)o1)N1CCc2[nH]cnc2[C@H]1c1cc2c(C(F)F)cccn2n1` [Example 980, (S)-(5-cyclopropyl-1,3,4-oxadiazol-2-yl)(4-(4-(difluoromethyl)pyrazolo[1,5-a]pyridin-2-yl)-6,7-dihydro-1H-imidazo[4,5-c]pyridin-5(4H)-yl)methanone]: the AC50 is less than 500 nM.

For `O=C(c1nnc(C2CC2)o1)N1CCc2[nH]cnc2[C@@H]1c1cc2c(C(F)F)cccn2n1` [Example 981, (R)-(5-cyclopropyl-1,3,4-oxadiazol-2-yl)(4-(4-(difluoromethyl)pyrazolo[1,5-a]pyridin-2-yl)-6,7-dihydro-1H-imidazo[4,5-c]pyridin-5(4H)-yl)methanone], the AC50 fell in the range of 1000 to 5000 nM.

Regarding `O=C(c1nnc(-c2ncccc2F)o1)N1CCc2[nH]cnc2[C@H]1c1cc2cccc(Cl)n2n1` [Example 982, (S)-(4-(7-chloropyrazolo[1,5-a]pyridin-2-yl)-6,7-dihydro-1H-imidazo[4,5-c]pyridin-5(4H)-yl)(5-(3-fluoropyridin-2-yl)-1,3,4-oxadiazol-2-yl)methanone], the AC50 is less than 500 nM.

As to `O=C(c1nnc(-c2ncccc2F)o1)N1CCc2[nH]cnc2[C@@H]1c1cc2cccc(Cl)n2n1` [Example 983, (R)-(4-(7-chloropyrazolo[1,5-a]pyridin-2-yl)-6,7-dihydro-1H-imidazo[4,5-c]pyridin-5(4H)-yl)(5-(3-fluoropyridin-2-yl)-1,3,4-oxadiazol-2-yl)methanone], the AC50 was greater than 5000 nM.

For `O=C(c1nnc(-c2cnn(C(F)F)c2)o1)N1CCc2[nH]cnc2[C@@H]1c1cc2cccc(F)n2n1` [Example 985, (R)-(5-(1-(difluoromethyl)-1H-pyrazol-4-yl)-1,3,4-oxadiazol-2-yl)(4-(7-fluoropyrazolo[1,5-a]pyridin-2-yl)-6,7-dihydro-1H-imidazo[4,5-c]pyridin-5(4H)-yl)methanone], the AC50 was 1000 to 5000 nM.

The AC50 is the concentration at which the activity in the assay is half-maximal.
